According to patent US10544106B2, “Certain chemical entities, compositions, and methods” (NeuPharma, Inc., priority 2016, dated 2020):

Key:
[1] = molecular target: BTK (Homo sapiens (Human), UniProt Q06187); experiment: Z'-LYTE kinase inhibition assay against BTK; format: biochemical; details: for inhibition at 0.1 µM: compound at 100 nM, ATP concentration at Km; for IC50: series of concentrations, GraphPad Prism 5
Summary of the method: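 Compounds were titrated over 10 points (3-fold steps, 1% DMSO) against BTK (1.04-10.4 ng) using Tyr 01 substrate at 2 μM and ATP at Km, pH 7.5 HEPES buffer with MgCl2 and EGTA. After one hour each of reaction and development at room temperature, fluorescence gave percent inhibition and IC50.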

[2] = tested on: OCI-Ly10 cells; experiment: OCI-Ly10 cell proliferation assay (Alamar Blue, 72 hours); format: cell-based; details: Homo sapiens
Procedure: OCI-Ly10 cells were cultured in Iscove's DMEM supplemented with 20% fetal bovine serum and 1× penicillin/streptomycin/glutamine. The cells were maintained in T175 flasks under 5% CO2 in a 37 ° C. humidified incubator for 5 days prior to plating and assay.
Cells were pooled by centrifugation (200 ref, 8 minutes) and resuspended in fresh medium to a concentration of 2.00E+05 cells/ml. 200 µl of the cell suspension was added to each well (40,000 cells/well) of a black-walled 96 well plate to which 1 μl of compound (n=3 per concentration) in 100% DMSO (0.5% final concentration) was added per well. Vehicle and cell free wells were also included in the assay. The dosed cells were cultured under normal conditions for 72 hours.
Cell proliferation is measured using the dye Alamar Blue (resazurin). Resazurin is reduced to resorufin by cellular enzymes and is fluorescent (544 nm excitation, 612 nm emission). Fluorescence intensity is proportional to cell number. Resazurin was prepared in PBS to a stock concentration of 440 μM. 40 μl of the 440 μM resazurin stock solution was added 3 hours prior to the 72 hour termination of the assay. The plate was returned to normal culture conditions and fluorescence measurements were collected using a Cytation3 multimode plate reader (Biotek) at 72 hours.
The scale utilized in Table 8 is as follows: ++ less than 50 nM and + greater than 50 nM.

Sequence of BTK (Q06187 whole entry): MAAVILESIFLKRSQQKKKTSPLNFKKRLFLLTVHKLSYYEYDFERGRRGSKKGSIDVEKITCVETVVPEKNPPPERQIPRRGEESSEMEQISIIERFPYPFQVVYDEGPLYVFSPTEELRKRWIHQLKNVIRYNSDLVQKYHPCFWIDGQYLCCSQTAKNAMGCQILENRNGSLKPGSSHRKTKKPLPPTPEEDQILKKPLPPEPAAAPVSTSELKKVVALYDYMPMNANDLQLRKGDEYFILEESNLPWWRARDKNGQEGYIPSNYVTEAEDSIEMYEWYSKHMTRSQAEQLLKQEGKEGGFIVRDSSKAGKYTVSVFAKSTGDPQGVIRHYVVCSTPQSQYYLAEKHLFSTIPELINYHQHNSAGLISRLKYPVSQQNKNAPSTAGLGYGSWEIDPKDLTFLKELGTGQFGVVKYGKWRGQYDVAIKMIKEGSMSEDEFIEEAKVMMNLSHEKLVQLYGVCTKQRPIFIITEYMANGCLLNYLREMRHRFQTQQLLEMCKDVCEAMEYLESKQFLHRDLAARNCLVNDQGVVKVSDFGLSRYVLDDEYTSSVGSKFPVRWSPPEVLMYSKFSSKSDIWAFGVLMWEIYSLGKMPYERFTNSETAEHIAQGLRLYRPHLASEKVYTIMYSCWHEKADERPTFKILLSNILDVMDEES

inhibition at 0.1 µM [1]	IC50 [1]	IC50 [2]	Compound
> 50%	< 100 nM	< 50 nM	C=CC(=O)N1CCC(c2nc(-c3ccc(C(=O)Nc4ccccn4)cc3)n3c(N)nccc23)C1 (stereo not shown) [C185, 4-(1-(1-acryloylpyrrolidin-3-yl)-5-amino-imidazo[1,5-c]pyrimidin-3-yl)-N-(pyridin-2-yl)benzamide]
> 50%	< 100 nM	< 50 nM	C=CC(=O)N1CCC(c2nc(-c3ccc(Oc4ccccn4)cc3)n3c(N)nccc23)C1 (stereo not shown) [C186, 1-(3-(5-amino-3-(4-(pyridin-2-yloxy)phenyl)imidazo[1,5-c]pyrimidin-1-yl)pyrrolidin-1-yl)prop-2-en-1-one]
> 50%	< 100 nM	< 50 nM	C=CC(=O)N1CCC(c2nc(-c3ccc(Oc4cc(C(F)(F)F)ccn4)cc3)n3c(N)nccc23)C1 (stereo not shown) [C196, 1-(3-(5-amino-3-(4-((4-(trifluoromethyl)pyridin-2-yl)oxy)phenyl)imidazo[1,5-c]pyrimidin-1-yl)pyrrolidin-1-yl)prop-2-en-1-one]
> 50%	< 100 nM	< 50 nM	C=CC(=O)N1CCC(c2nc(-c3ccc(C(=O)Nc4ccccn4)cc3)n3c(N)ncnc23)C1 (stereo not shown) [C197, 4-(8-(1-acryloylpyrrolidin-3-yl)-4-amino-imidazo[1,5-a][1,3,5]triazin-6-yl)-N-(pyridin-2-yl)benzamide]
> 50%	< 100 nM	< 50 nM	C=CC(=O)N1CCC(c2nc(-c3ccc(C(=O)Nc4cc(C5CC5)ccn4)cc3)n3c(N)ncnc23)C1 (stereo not shown) [C199, 4-(8-(1-acryloylpyrrolidin-3-yl)-4-amino-imidazo[1,5-a][1,3,5]triazin-6-yl)-N-(4-cyclopropylpyridin-2-yl)benzamide]
> 50%	< 100 nM	< 50 nM	CC#CC(=O)N1CCC(c2nc(-c3ccc(C(=O)Nc4ccccn4)cc3)n3c(N)nccc23)C1 (stereo not shown) [C204, 4-(5-amino-1-(1-(but-2-ynoyl)pyrrolidin-3-yl)imidazo[1,5-c]pyrimidin-3-yl)-N-(pyridin-2-yl)benzamide]
> 50%	< 100 nM	< 50 nM	C=CC(=O)N1CCC(c2nc(-c3ccc(Oc4cc(OC)ccn4)cc3)n3c(N)nccc23)C1 (stereo not shown) [C210, 1-(3-(5-amino-3-(4-((4-methoxypyridin-2-yl)oxy)phenyl)imidazo[1,5-c]pyrimidin-1-yl)pyrrolidin-1-yl)prop-2-en-1-one]
	< 100 nM	< 50 nM	C=CC(=O)N1CCC(c2nc(-c3ccc(C(=O)Nc4ccccn4)c(F)c3)n3c(N)nccc23)C1 (stereo not shown) [C230, 4-(1-(1-acryloylpyrrolidin-3-yl)-5-amino-imidazo[1,5-c]pyrimidin-3-yl)-2-fluoro-N-(pyridin-2-yl)benzamide]
	< 100 nM	< 50 nM	C=CC(=O)N1CCCC(c2nc(-c3ccc(C(=O)Nc4ccccn4)cc3)n3c(N)nccc23)C1 (stereo not shown) [C235, 4-(1-(1-acryloylpiperidin-3-yl)-5-amino-imidazo[1,5-c]pyrimidin-3-yl)-N-(pyridin-2-yl)benzamide]
	< 100 nM	< 50 nM	CC#CC(=O)N1CCCC(c2nc(-c3ccc(C(=O)Nc4ccccn4)cc3)n3c(N)nccc23)C1 (stereo not shown) [C236, 4-(5-amino-1-(1-(but-2-ynoyl)piperidin-3-yl)imidazo[1,5-c]pyrimidin-3-yl)-N-(pyridin-2-yl)benzamide]
	< 100 nM	< 50 nM	C=CC(=O)N1CCC(c2nc(-c3ccc(C(=O)Nc4cc(C5CC5)ccn4)cc3)n3c(N)nccc23)C1 (stereo not shown) [C238, 4-(1-(1-acryloylpyrrolidin-3-yl)-5-amino-imidazo[1,5-c]pyrimidin-3-yl)-N-(4-cyclopropylpyridin-2-yl)benzamide]
	< 100 nM	< 50 nM	C=CC(=O)N1CCC(c2nc(-c3ccc(C(=O)Nc4cc(OC)ccn4)cc3)n3c(N)nccc23)C1 (stereo not shown) [C240, 4-(1-(1-acryloylpyrrolidin-3-yl)-5-amino-imidazo[1,5-c]pyrimidin-3-yl)-N-(4-methoxypyridin-2-yl)benzamide]

The remaining lines, values behind:

Compound	inhibition at 0.1 µM [1]	IC50 [1]	IC50 [2]
C=CC(=O)Nc1cccc(-c2cc(-c3cccnc3)cc3cnc(N)nc23)c1 [C035, N-(3-(2-amino-6-(pyridin-3-yl)quinazolin-8-yl)phenyl)acrylamide]	> 50%	< 100 nM	> 50 nM
C=CC(=O)N1CCC(c2cc(-c3ccc(C(=O)Nc4cc(F)ccn4)cc3)n3cnccc23)C1 (stereo not shown) [C065, 4-(5-(1-acryloylpyrrolidin-3-yl)pyrrolo[1,2-c]pyrimidin-7-yl)-N-(4-fluoropyridin-2-yl)benzamide]	> 50%	< 100 nM	< 50 nM
C=CC(=O)Nc1cccc(-c2cc(-c3ccc(Oc4ccccn4)cc3)cc3cncnc23)c1 [C099, N-(3-(6-(4-(pyridin-2-yloxy)phenyl)quinazolin-8-yl)phenyl)acrylamide]	> 50%	< 100 nM	< 50 nM
C=CC(=O)Nc1cccc(-c2cc(-c3ccc(C(=O)N4CCCC4)cc3)cc3cncnc23)c1 [C102, N-(3-(6-(4-(pyrrolidine-1-carbonyl)phenyl)quinazolin-8-yl)phenyl)acrylamide]	> 50%	< 100 nM	> 50 nM
C=CC(=O)Nc1cccc(-c2cc(-c3ccc(Oc4ncccc4F)cc3F)cc3cncnc23)c1 [C105, N-(3-(6-(2-fluoro-4-((3-fluoropyridin-2-yl)oxy)phenyl)quinazolin-8-yl)phenyl)acrylamide]	> 50%	< 100 nM	< 50 nM
C=CC(=O)Nc1cccc(-c2cc(-c3ccc(Oc4ccccn4)cc3F)cc3cncnc23)c1 [C112, N-(3-(6-(2-fluoro-4-(pyridin-2-yloxy)phenyl)quinazolin-8-yl)phenyl)acrylamide]	> 50%	< 100 nM	< 50 nM
C=CC(=O)Nc1cccc(-c2cc(-c3ccc(C(=O)Nc4cc(C5CC5)ccn4)cc3Cl)cc3cncnc23)c1 [C120, 4-(8-(3-acrylamidophenyl)quinazolin-6-yl)-3-chloro-N-(4-cyclopropylpyridin-2-yl)benzamide]	> 50%	< 100 nM	< 50 nM
C=CC(=O)Nc1cccc(-c2cc(-c3ccc(Oc4ccccn4)cc3OC)cc3cncnc23)c1 [C121, N-(3-(6-(2-methoxy-4-(pyridin-2-yloxy)phenyl)quinazolin-8-yl)phenyl)acrylamide]	> 50%	< 100 nM	> 50 nM
C=CC(=O)Nc1cccc(-c2cc(-c3ccc(C(=O)Nc4cc(C5CC5)ccn4)cc3)cc3cncnc23)c1 [C131, 4-(8-(3-acrylamidophenyl)quinazolin-6-yl)-N-(4-cyclopropylpyridin-2-yl)benzamide]	> 50%	< 100 nM	< 50 nM
C=CC(=O)Nc1cccc(-c2cc(-c3ccc(Oc4ccccn4)c(F)c3)cc3cncnc23)c1 [C135, N-(3-(6-(3-fluoro-4-(pyridin-2-yloxy)phenyl)quinazolin-8-yl)phenyl)acrylamide]	> 50%	< 100 nM	< 50 nM
C=CC(=O)Nc1cccc(-c2cc(-c3ccc(C(=O)Nc4cc(C5CC5)ccn4)c(F)c3)cc3cncnc23)c1 [C139, 4-(8-(3-acrylamidophenyl)quinazolin-6-yl)-N-(4-cyclopropylpyridin-2-yl)-2-fluorobenzamide]	> 50%	< 100 nM	< 50 nM
C=CC(=O)Nc1cccc(-c2cc(-c3ccc(C(=O)Nc4ccccn4)c(Cl)c3)cc3cncnc23)c1 [C163, 4-(8-(3-acrylamidophenyl)quinazolin-6-yl)-2-chloro-N-(pyridin-2-yl)benzamide]	> 50%	< 100 nM	> 50 nM
C=CC(=O)Nc1cccc(-c2cc(-c3ccc(Oc4cc(C5CC5)ccn4)cc3)cc3cncnc23)c1 [C183, N-(3-(6-(4-((4-cyclopropylpyridin-2-yl)oxy)phenyl)quinazolin-8-yl)phenyl)acrylamide]	> 50%	< 100 nM	< 50 nM
C=CC(=O)Nc1cccc(-c2cc(-c3ccc(Oc4cc(C#N)ccn4)cc3)cc3cncnc23)c1 [C184, N-(3-(6-(4-((4-cyanopyridin-2-yl)oxy)phenyl)quinazolin-8-yl)phenyl)acrylamide]	> 50%	< 100 nM	< 50 nM
